Drawing on ChEMBL document CHEMBL4619822, “Novel Cyclic Tetramer Compounds as PCSK9 Inhibitors for Treating Metabolic Disorders” (ACS Med Chem Lett, 2020), this text covers Imax for six molecules.

Each structure is given as a SMILES string.

Chain of Proprotein convertase subtilisin/kexin type 9 (Homo sapiens) (Q8NBP7 31-152 limits assumed): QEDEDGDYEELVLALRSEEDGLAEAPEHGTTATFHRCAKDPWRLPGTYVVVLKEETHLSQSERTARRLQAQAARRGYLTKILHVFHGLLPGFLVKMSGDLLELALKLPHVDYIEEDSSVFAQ
Chain of Proprotein convertase subtilisin/kexin type 9 (Homo sapiens) (Q8NBP7 153-692 limits assumed): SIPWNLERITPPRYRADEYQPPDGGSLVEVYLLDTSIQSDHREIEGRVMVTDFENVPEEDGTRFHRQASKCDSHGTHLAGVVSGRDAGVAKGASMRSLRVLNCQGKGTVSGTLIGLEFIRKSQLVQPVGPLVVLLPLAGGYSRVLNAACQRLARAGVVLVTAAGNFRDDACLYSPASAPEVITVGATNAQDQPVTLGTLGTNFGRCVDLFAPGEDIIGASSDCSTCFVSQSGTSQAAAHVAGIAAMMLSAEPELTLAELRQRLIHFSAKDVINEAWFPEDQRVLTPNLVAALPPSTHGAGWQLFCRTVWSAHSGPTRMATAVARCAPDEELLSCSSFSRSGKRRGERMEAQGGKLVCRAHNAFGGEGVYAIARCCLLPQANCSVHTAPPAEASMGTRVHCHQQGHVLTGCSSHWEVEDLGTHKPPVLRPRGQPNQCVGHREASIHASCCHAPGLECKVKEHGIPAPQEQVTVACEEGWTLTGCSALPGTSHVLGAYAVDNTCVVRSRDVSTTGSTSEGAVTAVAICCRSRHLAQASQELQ

This experiment concerns the target Proprotein convertase subtilisin/kexin type 9 (Homo sapiens) (UniProt Q8NBP7). Description: Inhibition of human PCSK9 by Alexa Fluor 647 staining based TR-FRET assay relative to control. On the technique in general: In TR-FRET formats the signal depends on donor and acceptor labels being close together.
In turn, `C[C@H]1C(=O)N[C@@H](CO)C(=O)N[C@@]2(Cc3ccc(Cl)cc3)CCCN(C2)C(=O)[C@H](Cc2ccccc2)CC(=O)N1Cc1ccc(Cl)c(F)c1Oc1ccc(-c2cnc(CN(C)C)n2C)cc1` registered an Imax of 101%.
As for `COC[C@@H]1NC(=O)[C@H](C)N(Cc2ccc(Cl)cc2Oc2ccc(-c3cnc(CN(C)C)n3C)nc2)C(=O)C[C@@H](CC(F)(F)F)C(=O)N2CCC[C@@](Cc3ccc(Cl)cc3)(C2)N(C)C1=O`, the Imax stood at 113%.
Take `CNCc1ncc(-c2ccc(Oc3cc(Cl)cc(F)c3CN3C(=O)C[C@@H](CC(F)(F)F)C(=O)N4CCC[C@@](Cc5ccc(Cl)cc5)(C4)N(C)C(=O)[C@H](COC)NC(=O)[C@@H]3C)cc2)n1C`: the Imax worked out at 105%.
Then `COC[C@@H]1NC(=O)[C@H](C)N(Cc2ncc(Cl)cc2Oc2ccc(-c3cnc(CN(C)C)n3C)cc2)C(=O)C[C@@H](Cc2ccccc2)C(=O)N2CCC[C@@](Cc3ccc(Cl)cc3)(C2)NC1=O`, with 103%; and `C[C@H]1C(=O)N[C@@H](CO)C(=O)N[C@@]2(Cc3ccc(Cl)cc3)CCCN(C2)C(=O)[C@H](CC2CC2)CC(=O)N1Cc1c(F)cc(Cl)cc1Oc1ccc(-c2cnc(CNC3CCC3)n2C)cc1`, with 100%; and `CNCc1ncc(-c2ccc(Oc3cc(Cl)ccc3CN3C(=O)C[C@@H](Cc4ccccc4)C(=O)N4CCC[C@@](Cc5ccc(Cl)cc5)(C4)NC(=O)[C@H](CO)NC(=O)[C@@H]3C)cc2)n1C`, with 105%.
